# Results as given in patent EP0519427A2, “N-substituted-3-iodopropiolamide, production and use thereof” (priority 1991, dated 1992).
# Key:
# [1] = tested on: Coriolus versicolor(L. ex Fr.) Quélet, FFPRI 1030; assay: Preserving activity for wood preservatives (weight loss of treated wood); format: cell-based; conditions: beech sapwood specimens, 110 ± 10 g/m² preservative applied (0.5% xylene solution per table note), eight weeks at 26 ± 2 °C; lower = higher preserving activity
# Experimental: (§1) This test was conducted according to Specification No.1 of Japan Wood Preserving Association, enacted in 1979, amended in 1989 and titled "Test methods of preserving activity for wood preservatives used in the coating, spraying and dipping treatment".
# (§2) • ① Tyromyces palustris (Ber. et Curt.) Murr., FFPRI 0507 --"Ouzuratake" • ② Coriolus versicolor(L. ex Fr.) Quélet, FFPRI 1030 --"Kawaratake"
# (§3) These two fungi are classified as wood rot fungi.
# (§4) Culture media comprised culture jars (cylindrical jars of bottom diameter 8-9 cm, opening diameter 6-7 cm and height 15-18 cm), in which quartz sand of 250 g (the size of which corresponds to 20-30 mesh) was put first, and then the solution of 70 ml containing 2.0 % malt extracts and 1.0 % peptone was introduced, over which chips of the beech or other broadleaf tree were spread at about 2 mm thickness, and then sterilized at 120 °C for 30 minutes in the wet heated sterilizer.
# (§5) Fungi were cultured at 26 ± 2 °C with shaking using the culture solution of 2.0 % malt extracts and 1.0 % peptone. After sufficient breeding was obtained, the fungi solution of about 3 ml was spread all over the culture medium, and then the fungi were cultured at 26 ± 2 °C with the relative humidity of over 70 %. After 10-15 days when the fungi layer sufficiently covered the culture medium, the fungi were served for the tests.
# (§6) Wood specimens were the sapwood of intact cedar and beech, the dimension of which was 5 mm thick, 20 mm wide and 40 mm long. The grain face was of 20 mm width and 40 mm length. The side faces were treated with cold-setting epoxy resin.
# (§7) The antimicrobial operation was performed with specifying types of fungi for corresponding type of trees. The combinations were as follows: Cedar----Tyromyces palustris ("Ouzuratake") Beech----Coriolus versicolor ("Kawaratake")
# (§8) The test specimens were of two types, treated and untreated specimens, respectively.
# (§9) The treated specimens referred to the wood specimens coated by brushing, spraying or dipping with wood preservatives. The amount of applied preservatives was 110 ± 10 g/m².
# (§10) The amount of applied preservatives for each test specimen was calculated by the following equation:
# (§11) The amount of applied preservatives (g/m²)=(W₁-W₂)/A wherein W₁ : weight of the test specimen after absorption(g), W₂ : weight of the test specimen before absorption(g) and A: surface area of test specimen except both butt surfaces (m²)
# (§12) 2-7-1 The test specimens prepared in the previous section were dried at 60 ± 2 °C with a recirculating dryer for 48 hours, and were allowed to stand in a desiccator for about 30 minutes, and then the weight (W₃) was measured to an accuracy of 0.01 g.
# (§13) 2-7-2 Three of each treated and untreated specimens were assembled in the Teflon casing. After sterilizing, the two assemblies were put on their 40 × 5 mm face on the fungi layer in the separate jar. They were kept at 26 ± 2 °C under the relative humidity of over 70 % for eight weeks.
# (§14) 2-7-3 After the eight weeks had elapsed, the test specimens were taken out, and mycelia and other attachments of them were removed neatly. After air-drying for 24 hours, the test specimens were dried at 60 ± 2 °C in a recirculating dryer for 48 hours, and were allowed to stand in a desiccator for about 30 minutes, and then the weight (W₄) was measured to an accuracy of 0.01 g.
# (§15) The test results were presented by the ratio of average weight loss of test specimens due to antimicrobial operation. The standard deviation and coefficient of variation were also determined. The ratio of weight loss for each test specimen was calculated by the following equation, and its average was also determined: The ratio of weight loss(%) = (W₃ - W₄) / W₃ × 100 [formula] . Lower value of the ratio of weight loss corresponds to higher wood preserving activity. […]
# [2] = tested on: Tyromyces palustris (Ber. et Curt.) Murr., FFPRI 0507; assay: as above; format: cell-based; conditions: cedar sapwood specimens, 110 ± 10 g/m² preservative applied (0.5% xylene solution per table note), eight weeks at 26 ± 2 °C; lower = higher preserving activity
# Experimental: as §1, §2, §3, §4, §5, §6, §7, §8, §9, §10, §11, §12, §13, §14, §15
# [3] = tested on: wood rot fungi; assay: Preserving activity for wood preservatives, overall statement for both fungi; format: cell-based, Tyromyces palustris, Coriolus versicolor; conditions: summary of Table 2
# Experimental: as §1, §2, §3, §4, §5, §6, §7, §8, §9, §10, §11, §12, §13, §14, §15
SMILES,"Ratio of weight loss (%), C. versicolor [1] [%]","Ratio of weight loss (%), T. palustris [2] [%]",wood preserving activity (statement in words) [3]
"CC(C)(C)NC(=O)C#CI [Example 1, N-(tert-Butyl)-3-iodopropiolamide]",11.9,2.4,excellent wood preserving activity
"CCCCCCCCCCNC(=O)C#CI [Example 2, N-(n-Decyl)-3-iodopropiolamide]",15.9,0.2,excellent wood preserving activity
"CCCCNC(=O)C#CI [Example 4, N-(n-Butyl)-3-iodopropiolamide]",1.6,0.0,excellent wood preserving activity
"CCC(C)NC(=O)C#CI (stereo not drawn) [Example 5, N-(sec-Butyl)-3-iodopropiolamide]",7.2,2.5,excellent wood preserving activity
"CC(C)CNC(=O)C#CI [Example 6, N-Isobutyl-3-iodopropiolamide]",1.5,0.0,excellent wood preserving activity
"CCCCCNC(=O)C#CI [Example 7, N-(n-Pentyl)-3-iodopropiolamide]",3.1,2.2,excellent wood preserving activity
"CCCCCCNC(=O)C#CI [Example 8, N-(n-Hexyl)-3-iodopropiolamide]",1.7,1.3,excellent wood preserving activity
"CCCCCCCNC(=O)C#CI [Example 9, N-(n-Heptyl)-3-iodopropiolamide]",12.0,3.3,–
"CCCCCCCCNC(=O)C#CI [Example 10, N-(n-Octyl)-3-iodopropiolamide]",8.4,5.0,–
"CCCCCCCCCNC(=O)C#CI [Example 11, N-(n-Nonyl)-3-iodopropiolamide]",14.2,5.8,–
